ChEMBL document CHEMBL4507293 (2021)

Key:
[1] = target: STE20/SPS1-related proline-alanine-rich protein kinase (Homo sapiens) (UniProt Q9UEW8); settings: Compound concentration 100.0 nM
[2] = target: Leucine-rich repeat serine/threonine-protein kinase 2 (Homo sapiens) (UniProt Q5S007); settings: Compound concentration 100.0 nM
[3] = target: Serine/threonine-protein kinase 25 (Homo sapiens) (UniProt O00506); settings: Compound concentration 100.0 nM
[4] = target: Ephrin type-A receptor 8 (Homo sapiens) (UniProt P29322); settings: Compound concentration 100.0 nM
[5] = target: Homeodomain-interacting protein kinase 2 (Homo sapiens) (UniProt Q9H2X6); settings: Compound concentration 100.0 nM
[6] = target: Tyrosine-protein kinase Srms (Homo sapiens) (UniProt Q9H3Y6); settings: Compound concentration 100.0 nM
[7] = target: MAP/microtubule affinity-regulating kinase 4 (Homo sapiens) (UniProt Q96L34); settings: Compound concentration 100.0 nM
[8] = target: Tyrosine-protein kinase ABL2 (Homo sapiens) (UniProt P42684); settings: Compound concentration 100.0 nM
[9] = target: Cyclin-dependent kinase 19 (Homo sapiens) (UniProt Q9BWU1); settings: Compound concentration 100.0 nM
[10] = target: Tyrosine-protein kinase JAK2 (Homo sapiens) (UniProt O60674); settings: Compound concentration 100.0 nM
[11] = target: Beta-adrenergic receptor kinase 1 (Homo sapiens) (UniProt P25098); settings: Compound concentration 100.0 nM
[12] = target: Mitogen-activated protein kinase 12 (Homo sapiens) (UniProt P53778); settings: Compound concentration 100.0 nM
[13] = target: Serine/threonine-protein kinase PLK3 (Homo sapiens) (UniProt Q9H4B4); settings: Compound concentration 100.0 nM
[14] = target: TRAF2 and NCK-interacting protein kinase (Homo sapiens) (UniProt Q9UKE5); settings: Compound concentration 100.0 nM
[15] = system: Mast/stem cell growth factor receptor Kit (Homo sapiens), P10721 [V559D]; settings: Compound concentration 100.0 nM
[16] = target: Cyclin-dependent kinase-like 1 (Homo sapiens) (UniProt Q00532); settings: Compound concentration 100.0 nM
[17] = target: Calcium/calmodulin-dependent protein kinase kinase 1 (Homo sapiens) (UniProt Q8N5S9); settings: Compound concentration 100.0 nM
[18] = target: Serine/threonine-protein kinase haspin (Homo sapiens) (UniProt Q8TF76); settings: Compound concentration 100.0 nM
[19] = target: Mitogen-activated protein kinase kinase kinase kinase 5 (Homo sapiens) (UniProt Q9Y4K4); settings: Compound concentration 100.0 nM
[20] = target: Mitogen-activated protein kinase kinase kinase 11 (Homo sapiens) (UniProt Q16584); settings: Compound concentration 100.0 nM
[21] = target: Rho-associated protein kinase 2 (Homo sapiens) (UniProt O75116); settings: Compound concentration 100.0 nM
[22] = target: 5-hydroxytryptamine receptor 7 (Homo sapiens, UniProt P34969); settings: Compound concentration 10.0 uM
[23] = system: Epidermal growth factor receptor (Homo sapiens), P00533 [L858R,T790M]; settings: Compound concentration 100.0 nM
[24] = target: Receptor-type tyrosine-protein kinase FLT3 (Homo sapiens) (UniProt P36888); settings: Compound concentration 100.0 nM
[25] = target: Serine/threonine-protein kinase 32C (Homo sapiens) (UniProt Q86UX6); settings: Compound concentration 100.0 nM
[26] = target: Membrane-associated tyrosine- and threonine-specific cdc2-inhibitory kinase (Homo sapiens) (UniProt Q99640); settings: Compound concentration 100.0 nM
[27] = target: Serine/threonine-protein kinase PAK 4 (Homo sapiens) (UniProt O96013); settings: Compound concentration 100.0 nM
[28] = target: Interleukin-1 receptor-associated kinase 4 (Homo sapiens) (UniProt Q9NWZ3); settings: Compound concentration 100.0 nM
[29] = target: TGF-beta receptor type-2 (Homo sapiens) (UniProt P37173); settings: Compound concentration 100.0 nM
[30] = target: 3-phosphoinositide-dependent protein kinase 1 (Homo sapiens) (UniProt O15530); settings: Compound concentration 100.0 nM
[31] = target: Cyclin-dependent kinase 4 (Homo sapiens) (UniProt P11802); settings: Compound concentration 100.0 nM
[32] = target: Myosin light chain kinase 2, skeletal/cardiac muscle (Homo sapiens) (UniProt Q9H1R3); settings: Compound concentration 100.0 nM
[33] = target: Epidermal growth factor receptor (Homo sapiens) (UniProt P00533); settings: Compound concentration 100.0 nM
[34] = target: Serine/threonine-protein kinase ULK2 (Homo sapiens) (UniProt Q8IYT8); settings: Compound concentration 100.0 nM
[35] = target: D(1B) dopamine receptor (Homo sapiens) (UniProt P21918); settings: Compound concentration 10.0 uM
[36] = system: Receptor-type tyrosine-protein kinase FLT3 (Homo sapiens), P36888 [UNDEFINED MUTATION]; settings: Compound concentration 100.0 nM
[37] = system: Tyrosine-protein kinase ABL1 (Homo sapiens), P00519 [H396P]; settings: Compound concentration 100.0 nM
[38] = target: GABA-A receptor; anion channel (Rattus norvegicus) (UniProt O09028+P15431+P18506+P18508+P19969+P20236+P23574+P23576+P28471+P28473+P30191+P62813+P63079+P63138+Q91ZM7+Q9ES14); settings: Compound concentration 10.0 uM
[39] = target: Serine/threonine-protein kinase TAO1 (Homo sapiens) (UniProt Q7L7X3); settings: Compound concentration 100.0 nM
[40] = target: Serine/threonine-protein kinase PAK 2 (Homo sapiens) (UniProt Q13177); settings: Compound concentration 100.0 nM
[41] = target: Inhibitor of nuclear factor kappa-B kinase subunit beta (Homo sapiens) (UniProt O14920); settings: Compound concentration 100.0 nM
[42] = target: Homeodomain-interacting protein kinase 1 (Homo sapiens) (UniProt Q86Z02); settings: Compound concentration 100.0 nM
[43] = target: Ephrin type-B receptor 4 (Homo sapiens) (UniProt P54760); settings: Compound concentration 100.0 nM
Chain of Ephrin type-B receptor 4 (Homo sapiens) (P54760 whole entry): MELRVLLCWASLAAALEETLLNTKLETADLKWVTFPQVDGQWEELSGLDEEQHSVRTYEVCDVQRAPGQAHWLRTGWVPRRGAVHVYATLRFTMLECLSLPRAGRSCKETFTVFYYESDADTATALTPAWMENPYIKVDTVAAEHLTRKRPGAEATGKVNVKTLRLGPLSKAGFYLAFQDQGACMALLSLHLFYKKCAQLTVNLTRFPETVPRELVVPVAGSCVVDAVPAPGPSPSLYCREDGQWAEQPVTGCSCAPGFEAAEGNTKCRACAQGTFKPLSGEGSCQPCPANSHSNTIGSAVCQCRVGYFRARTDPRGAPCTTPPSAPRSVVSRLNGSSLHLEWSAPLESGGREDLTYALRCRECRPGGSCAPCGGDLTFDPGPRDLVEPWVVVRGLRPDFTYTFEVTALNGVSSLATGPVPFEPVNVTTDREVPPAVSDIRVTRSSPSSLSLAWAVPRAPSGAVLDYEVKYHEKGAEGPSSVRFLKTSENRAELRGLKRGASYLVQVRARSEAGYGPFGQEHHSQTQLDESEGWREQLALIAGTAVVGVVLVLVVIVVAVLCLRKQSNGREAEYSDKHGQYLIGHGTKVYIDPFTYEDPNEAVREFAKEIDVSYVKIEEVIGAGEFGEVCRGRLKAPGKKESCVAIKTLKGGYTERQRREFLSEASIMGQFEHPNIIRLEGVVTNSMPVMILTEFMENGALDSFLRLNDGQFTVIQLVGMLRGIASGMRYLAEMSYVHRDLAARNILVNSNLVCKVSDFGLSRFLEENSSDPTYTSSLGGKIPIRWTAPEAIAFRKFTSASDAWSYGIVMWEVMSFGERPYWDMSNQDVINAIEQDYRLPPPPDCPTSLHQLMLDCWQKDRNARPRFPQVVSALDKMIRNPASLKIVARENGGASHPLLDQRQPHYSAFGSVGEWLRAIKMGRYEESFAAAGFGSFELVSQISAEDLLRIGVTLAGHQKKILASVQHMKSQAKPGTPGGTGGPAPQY

Chain of Cyclin-dependent kinase 19 (Homo sapiens) (Q9BWU1 whole entry): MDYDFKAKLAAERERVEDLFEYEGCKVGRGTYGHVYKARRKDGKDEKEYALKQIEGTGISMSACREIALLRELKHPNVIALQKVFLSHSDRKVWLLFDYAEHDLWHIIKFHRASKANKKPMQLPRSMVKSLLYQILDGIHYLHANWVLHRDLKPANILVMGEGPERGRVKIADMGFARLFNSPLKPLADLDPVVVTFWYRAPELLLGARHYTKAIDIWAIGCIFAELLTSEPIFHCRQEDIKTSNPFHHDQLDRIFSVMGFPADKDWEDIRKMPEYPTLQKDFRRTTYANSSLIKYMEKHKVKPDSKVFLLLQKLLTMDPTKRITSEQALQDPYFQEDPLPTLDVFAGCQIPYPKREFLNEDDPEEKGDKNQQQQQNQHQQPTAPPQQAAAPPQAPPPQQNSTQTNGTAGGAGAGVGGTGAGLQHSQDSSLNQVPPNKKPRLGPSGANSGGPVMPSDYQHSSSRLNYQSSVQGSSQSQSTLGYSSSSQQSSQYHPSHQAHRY
Chain of Serine/threonine-protein kinase 25 (Homo sapiens) (O00506 whole entry, looked up): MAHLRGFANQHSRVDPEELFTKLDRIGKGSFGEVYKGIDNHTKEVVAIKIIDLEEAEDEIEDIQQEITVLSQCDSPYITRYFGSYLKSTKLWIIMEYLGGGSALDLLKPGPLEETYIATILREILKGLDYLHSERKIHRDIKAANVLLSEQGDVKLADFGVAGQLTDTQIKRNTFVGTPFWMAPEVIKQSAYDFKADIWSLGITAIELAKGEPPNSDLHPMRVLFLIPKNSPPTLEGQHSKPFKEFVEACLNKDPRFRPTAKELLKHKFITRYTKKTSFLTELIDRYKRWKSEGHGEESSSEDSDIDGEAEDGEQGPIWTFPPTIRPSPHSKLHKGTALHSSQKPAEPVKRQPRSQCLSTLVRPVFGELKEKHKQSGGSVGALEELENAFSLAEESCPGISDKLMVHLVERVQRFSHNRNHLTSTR
Chain of 3-phosphoinositide-dependent protein kinase 1 (Homo sapiens) (O15530 whole entry): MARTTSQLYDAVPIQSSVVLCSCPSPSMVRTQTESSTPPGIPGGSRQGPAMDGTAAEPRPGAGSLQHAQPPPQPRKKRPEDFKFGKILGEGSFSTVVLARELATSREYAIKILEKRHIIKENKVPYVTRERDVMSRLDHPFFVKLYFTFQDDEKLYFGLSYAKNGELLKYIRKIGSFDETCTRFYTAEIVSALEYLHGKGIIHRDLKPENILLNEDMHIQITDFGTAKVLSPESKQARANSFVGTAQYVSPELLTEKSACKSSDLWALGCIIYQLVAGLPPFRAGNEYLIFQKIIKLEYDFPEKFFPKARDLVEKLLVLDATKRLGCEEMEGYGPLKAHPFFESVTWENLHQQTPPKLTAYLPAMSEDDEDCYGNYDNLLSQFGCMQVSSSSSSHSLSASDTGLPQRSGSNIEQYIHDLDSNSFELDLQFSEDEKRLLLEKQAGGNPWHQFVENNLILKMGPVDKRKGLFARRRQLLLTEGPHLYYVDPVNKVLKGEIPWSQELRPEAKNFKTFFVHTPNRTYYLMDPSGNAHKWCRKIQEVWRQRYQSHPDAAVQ
Chain of D(1B) dopamine receptor (Homo sapiens) (P21918 whole entry): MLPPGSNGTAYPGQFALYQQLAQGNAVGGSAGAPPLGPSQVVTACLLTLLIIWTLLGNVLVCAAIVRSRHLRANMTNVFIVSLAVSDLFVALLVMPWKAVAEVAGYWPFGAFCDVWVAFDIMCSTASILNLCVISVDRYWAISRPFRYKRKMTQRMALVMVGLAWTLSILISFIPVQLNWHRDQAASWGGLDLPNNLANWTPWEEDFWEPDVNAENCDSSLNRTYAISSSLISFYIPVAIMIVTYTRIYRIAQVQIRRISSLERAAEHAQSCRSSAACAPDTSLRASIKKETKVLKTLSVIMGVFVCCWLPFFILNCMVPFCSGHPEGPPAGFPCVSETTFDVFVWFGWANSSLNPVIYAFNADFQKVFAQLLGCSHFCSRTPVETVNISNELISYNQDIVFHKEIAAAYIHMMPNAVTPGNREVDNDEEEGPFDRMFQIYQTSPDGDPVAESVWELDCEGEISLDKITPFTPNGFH
Chain of Serine/threonine-protein kinase haspin (Homo sapiens) (Q8TF76 whole entry): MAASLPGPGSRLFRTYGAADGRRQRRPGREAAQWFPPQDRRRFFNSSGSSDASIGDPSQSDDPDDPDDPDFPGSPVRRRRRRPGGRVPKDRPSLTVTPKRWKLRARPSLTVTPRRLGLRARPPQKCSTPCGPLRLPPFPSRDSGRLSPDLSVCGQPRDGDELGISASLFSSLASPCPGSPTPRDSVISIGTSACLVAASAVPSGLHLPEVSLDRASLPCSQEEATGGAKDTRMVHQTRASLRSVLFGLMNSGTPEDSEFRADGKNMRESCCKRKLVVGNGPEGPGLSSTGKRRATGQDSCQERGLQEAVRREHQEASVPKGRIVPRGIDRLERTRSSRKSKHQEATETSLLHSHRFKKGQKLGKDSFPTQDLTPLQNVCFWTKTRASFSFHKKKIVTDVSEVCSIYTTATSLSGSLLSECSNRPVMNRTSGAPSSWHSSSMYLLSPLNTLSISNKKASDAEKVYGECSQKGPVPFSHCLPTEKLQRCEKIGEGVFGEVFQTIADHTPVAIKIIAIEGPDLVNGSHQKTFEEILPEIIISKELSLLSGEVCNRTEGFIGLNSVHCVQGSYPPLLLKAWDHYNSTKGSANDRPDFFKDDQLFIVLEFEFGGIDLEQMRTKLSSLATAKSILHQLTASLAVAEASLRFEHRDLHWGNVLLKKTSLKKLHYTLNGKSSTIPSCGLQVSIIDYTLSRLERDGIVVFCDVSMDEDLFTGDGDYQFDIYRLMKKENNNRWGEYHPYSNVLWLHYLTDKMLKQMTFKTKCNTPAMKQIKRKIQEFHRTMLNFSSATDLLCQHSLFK
Chain of Inhibitor of nuclear factor kappa-B kinase subunit beta (Homo sapiens) (O14920 whole entry): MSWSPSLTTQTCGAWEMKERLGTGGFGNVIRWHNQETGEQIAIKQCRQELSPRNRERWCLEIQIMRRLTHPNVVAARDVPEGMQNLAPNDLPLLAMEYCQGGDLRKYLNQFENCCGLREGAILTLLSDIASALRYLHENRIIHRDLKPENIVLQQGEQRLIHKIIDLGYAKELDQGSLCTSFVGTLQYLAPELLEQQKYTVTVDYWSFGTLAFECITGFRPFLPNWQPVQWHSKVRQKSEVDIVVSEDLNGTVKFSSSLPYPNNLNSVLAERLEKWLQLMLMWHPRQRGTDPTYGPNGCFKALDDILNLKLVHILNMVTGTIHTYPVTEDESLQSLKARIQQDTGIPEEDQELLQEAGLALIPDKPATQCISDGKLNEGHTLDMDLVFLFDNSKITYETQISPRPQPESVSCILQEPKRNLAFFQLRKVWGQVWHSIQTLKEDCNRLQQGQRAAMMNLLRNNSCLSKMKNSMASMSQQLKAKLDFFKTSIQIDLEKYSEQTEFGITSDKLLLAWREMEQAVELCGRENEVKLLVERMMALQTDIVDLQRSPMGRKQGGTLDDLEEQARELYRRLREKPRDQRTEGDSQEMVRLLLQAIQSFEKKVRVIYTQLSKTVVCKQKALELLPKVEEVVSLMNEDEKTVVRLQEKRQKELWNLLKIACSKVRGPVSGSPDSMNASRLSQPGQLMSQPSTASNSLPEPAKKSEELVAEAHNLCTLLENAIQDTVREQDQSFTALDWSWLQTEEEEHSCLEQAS
Chain of Membrane-associated tyrosine- and threonine-specific cdc2-inhibitory kinase (Homo sapiens) (Q99640 whole entry): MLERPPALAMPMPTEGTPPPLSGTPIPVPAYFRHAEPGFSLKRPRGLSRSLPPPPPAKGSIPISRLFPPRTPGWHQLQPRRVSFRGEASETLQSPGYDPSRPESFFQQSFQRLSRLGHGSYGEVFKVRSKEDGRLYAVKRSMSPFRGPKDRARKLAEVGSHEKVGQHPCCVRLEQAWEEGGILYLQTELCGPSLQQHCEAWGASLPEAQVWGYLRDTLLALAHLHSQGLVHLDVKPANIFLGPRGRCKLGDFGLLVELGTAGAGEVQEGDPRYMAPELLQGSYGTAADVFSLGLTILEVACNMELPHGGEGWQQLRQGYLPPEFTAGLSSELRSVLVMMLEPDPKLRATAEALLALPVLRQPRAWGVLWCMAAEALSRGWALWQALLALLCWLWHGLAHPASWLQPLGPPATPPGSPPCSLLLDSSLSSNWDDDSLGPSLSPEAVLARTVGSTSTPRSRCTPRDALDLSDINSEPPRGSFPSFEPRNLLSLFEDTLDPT

CC(C)CC(=O)N1CCc2nc(-c3ccc(Br)cc3)nc(N(C)Cc3ccccc3)c2C1 [THPP-1-NC]
inactive: residual activity [1] 100% | residual activity [2] 100% | residual activity [3] 100% | residual activity [4] 100% | residual activity [5] 100% | residual activity [6] 100% | residual activity [7] 100% | residual activity [8] 100% | residual activity [9] 62% | residual activity [10] 100% | residual activity [11] 100% | residual activity [12] 79% | residual activity [13] 100% | residual activity [14] 100% | residual activity [15] 100% | residual activity [16] 63% | residual activity [17] 100% | residual activity [18] 100% | residual activity [19] 93% | residual activity [20] 100% | residual activity [21] 74% | residual activity [23] 100% | residual activity [24] 60% | residual activity [25] 98% | residual activity [26] 92% | residual activity [27] 100% | residual activity [28] 100% | residual activity [29] 97% | residual activity [30] 100% | residual activity [31] 85% | residual activity [32] 96% | residual activity [33] 100% | residual activity [34] 89% | inhibition [35] 19.4% | residual activity [36] 68% | residual activity [37] 100% | inhibition [38] -3.36% | residual activity [39] 100% | residual activity [40] 100% | residual activity [41] 100% | residual activity [42] 64% | residual activity [43] 100%
active: inhibition [22] 64.5%

COCCOc1nc(-c2ccc(Cl)nc2)nc2c1CN(C(=O)c1ncn3ccccc13)CC2 [THPP-1]
inactive: residual activity [1] 100% | residual activity [2] 100% | residual activity [3] 100% | residual activity [4] 100% | residual activity [5] 100% | residual activity [6] 100% | residual activity [7] 100% | residual activity [8] 100% | residual activity [9] 63% | residual activity [10] 100% | residual activity [11] 100% | residual activity [12] 72% | residual activity [13] 100% | residual activity [14] 100% | residual activity [15] 100% | residual activity [16] 61% | residual activity [17] 100% | residual activity [18] 100% | residual activity [19] 91% | residual activity [20] 100% | residual activity [21] 76% | inhibition [22] 42.3% | residual activity [23] 100% | residual activity [24] 85% | residual activity [25] 100% | residual activity [26] 100% | residual activity [27] 100% | residual activity [28] 100% | residual activity [29] 94% | residual activity [30] 90% | residual activity [31] 96% | residual activity [32] 94% | residual activity [33] 88% | residual activity [34] 100% | inhibition [35] -3.46% | residual activity [36] 64% | residual activity [37] 100% | inhibition [38] 24.9% | residual activity [39] 100% | residual activity [40] 100% | residual activity [41] 100% | residual activity [42] 90% | residual activity [43] 100%
